The test system of experiment [1] is Cryptosporidium parvum. The experiment is described as follows: growth inhibitory activity against C. parvum in host MDBKF5D2 cells (immunofluorescence). The class given is cell-based. As to conditions: Cryptosporidium parvum, 48 h.
The subject of experiment [2] is Encephalitozoon (Septata) intestinalis. Description: growth inhibitory activity against E. intestinalis grown on Vero cells (spore count). As to conditions: 336 h, 1.0 μg/ml, spore number after 2 weeks, read-out: Growth (% of control). The class given is cell-based. Here is the method: Compounds 2, 10 and 15 were tested for i,7 vitro growth inhibitory activity against E. intestinalis, grown on African green monkey kidney cells (Vero cells). Vero cells were grown in 25-cm^2 culture flasks at 37° C. in a humidified 5% carbon dioxide incubator. Cultures were maintained in minimal essential medium (Gibco BRL, Gaithersburg, Md., U.S.A.), supplemented with L-glutamine, Earle's salts, 5% heat-inactivated foetal calf serum (Hyclone Labs, Inc., U.S.A.), fungizone (2 μg/ml, Gibco BRL) and gentamicin (50 μg/ml, Gibco BRL). E. intestinalis spores were collected from the supernatant of an infected Vero cell culture and were used to infect normal cells to produce a fresh spore preparation for growth inhibition tests.
Growth inhibition tests were performed in 24-well culture plates. One ml of Vero cells (5×10^4 cells per ml) was placed in each well and the cells incubated for 12-15 hours at 37° C. The supernatant medium was then removed and replaced with 1 ml of medium containing 1.5-2.0×10^4 E. intestinalis spores per ml along with 1 μl of test compound dissolved in dimethylsulfoxide (DMSO) or DMSO alone for the control treatments without test compound. The plates were incubated at 37° C. and the medium was changed every 72 h along with fresh test compound in DMSO or DMSO alone (controls). After 2 weeks the supernatant was transferred from each well to a microcentiifuge tube, then concentrated by centrifugation with resuspension of the resulting E. intestinalis spore pellet in 300-500 μl fresh medium. The spore number in each sample was then determined by counting in a hemocytometer. The results in Table 11 show the effects of the test compounds on the number of spores and are expressed as a percentage of the spore number in the control treatment without test compound.

The structures appear in SMILES notation.

Consider `CCC(C)(NC(=O)c1cc(Cl)c(N)c(Cl)c1)C(=O)CCl` (centres unmarked) [Compound 1], for which, in experiment [1], testing at 0.1 µM gave an inhibition of 23.1%, 1 µM produced 29.2% inhibition and testing at 10 µM gave an inhibition of 34.2%. This molecule displayed an inhibition at 100 µM in experiment [1] (100 μM) of 81.1%.

In experiment [1], `CCC(C)(NC(=O)c1cc(Cl)c(F)c(Cl)c1)C(=O)CCl` (centres unmarked) [Compound 9] showed an inhibition at 0.1 µM of 1.8%, an inhibition at 1 µM of 27.9% and an inhibition at 10 µM of 32.8%.

Consider `CCC(C)(NC(=O)c1cc(Cl)c(C)c(Cl)c1)C(=O)CCl` (centres unmarked) [Compound 10], for which the activity at 1 µg/mL in experiment [2] turned out to be 20%.

As usually defined, the inhibition is the percentage by which the read-out fell short of the control. A higher inhibition goes with strong suppression.
